Common to all, as to assay type: in vivo, Mycosphaerella graminicola on wheat plants (variety Yuma)
For test [1], the system named is Mycosphaerella graminicola; Anamorph: Septoria tritici; Bayer Code SEPTTR (standard laboratory isolate, SI SEPTTR). In words: Type A (high volume) assay, leaf blotch of wheat, standard laboratory SEPTTR isolate (SI SEPTTR). As to conditions: Zymoseptoria tritici, standard laboratory isolate, high volume, 50 ppm, wheat (Yuma). In short, it runs like this:
(§1)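 Wheat seedlings (Yuma, first leaf emerged) sprayed with acetone/Triton X-100 solutions (Type A) or 10% EC diluted in 0.1% Trycol at 200 L/ha (Type B), inoculated before or after spraying. Inoculated plants held 3 days at 20 °C, 100% RH, then greenhouse; % disease control from severity versus untreated plants.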

The test system is the same in test [2]. As to the kind of experiment: Type B (low volume, EC formulation, track sprayer 200 L/ha) assay, leaf blotch of wheat, standard laboratory SEPTTR isolate (SI SEPTTR). To be noted: Zymoseptoria tritici, 72 h, standard laboratory isolate, low volume EC, 100 g/ha, wheat (Yuma). On the procedure:
Example A: Evaluation of Fungicidal Activity: Leaf Blotch of Wheat (Mycosphaerella graminicola; Anamorph: Septoria tritici; Bayer Code SEPTTR)
For Type A assays, technical grades of the experimental fungicides in Table 4 below were dissolved in acetone, and then mixed with nine volumes of water containing 110 ppm Triton X-100. The fungicide solutions were applied onto wheat seedlings using an automated booth sprayer. For Type B assays, emulsifiable concentrate (EC) formulations of technical grades of the experimental fungicides in Table 4 below were prepared at 10% (w/v), and then mixed with 150 volumes of 0.1% Trycol 5941. These solutions were applied onto wheat seedlings using an automated track sprayer at 200 L/ha. All sprayed plants were allowed to air dry prior to further handling.
Wheat plants (variety Yuma) were grown from seed in a greenhouse in 50% mineral soil/50% soil-less Metro mix until the first leaf was fully emerged, with 7-10 seedlings per pot. Prior to or after application of experimental fungicides, plants were inoculated either with spores of a standard laboratory SEPTTR isolate (SI SEPTTR) or with spores from a SEPTTR field isolate collected from Wellsbourne, England in 2012 (FI SEPTTR). After inoculation the plants were kept for 3 days at 20° C. in 100% relative humidity (one day in a dark dew chamber followed by two days in a lighted dew chamber). Plants were then transferred to a 20° C. greenhouse for disease development. When disease symptoms were fully expressed on untreated plants, infection levels on treated plants were assessed on a scale of 0 to 100 percent disease severity. Percent disease control was calculated using the ratio of disease severity on treated plants relative to untreated plants.

The nature of test [3]: Type B (low volume, EC formulation, track sprayer 200 L/ha) assay, leaf blotch of wheat, SEPTTR field isolate (FI SEPTTR). To be noted: Zymoseptoria tritici, 72 h, field isolate, low volume EC, 100 g/ha, wheat (Yuma). In short, it runs like this:
as §1

Where [4] appears, read: 24 h, 1 Day Protectant, read-out: Disease Control, SI SEPTTR Type A Assay (50 ppm) 1 DP.
Where [5] appears, read: 72 h, 3 Day Curative, read-out: Disease Control, SI SEPTTR Type A Assay (50 ppm) 3 DC.
The mark [6] stands for this setting: 3 Day Curative, read-out: Disease Control, SI SEPTTR Type B Assay (100 g/ha) 3 DC.
[7] abbreviates: 3 Day Protectant, read-out: Disease Control, SI SEPTTR Type B Assay (100 g/ha) 3 DP.
The mark [8] stands for this setting: 3 Day Curative, read-out: Disease Control, FI SEPTTR Type B Assay (100 g/ha) 3 DC.
[9] abbreviates: 3 Day Protectant, read-out: Disease Control, FI SEPTTR Type B Assay (100 g/ha) 3 DP.

The source of these data is patent publication US10167300B2, “Metalloenzyme inhibitor compounds as fungicides” (priority 2014, dated 2019).

SMILES strings stand for the structures. Like-named read-outs stand apart in the source and are kept apart here.

Consider `CC(C)(C)C(O)(c1cncnc1)c1ccc(-c2ccc(OC(F)(F)F)cc2)cn1` (centres unmarked) [Compound 27, 2,2-dimethyl-1-(pyrimidin-5-yl)-1-(5-(4-(trifluoro-methoxy)phenyl)pyridin-2-yl)propan-1-ol], for which the pest or weed control at 50 ppm in test [1] (setting [4]) and in test [1] (setting [5]) was 80 to 100% each time. Further, the pest or weed control at 100 g/ha in test [2] (setting [6]), in test [2] (setting [7]), in test [3] (setting [8]) and in test [3] (setting [9]) was 80 to 100% each time.

With `CC(C)(C)C(O)(c1cccnc1)c1ccc(-c2ccc(C3(C#N)CC3)cc2)cn1` (centres unmarked) [Compound 145], the pest or weed control at 50 ppm in test [1] (setting [4]) was in the range of 80 to 100%. In addition, the pest or weed control at 100 g/ha lay within 80 to 100% in test [2] (setting [6]), 60 to 79% in test [2] (setting [7]), 80 to 100% in test [3] (setting [8]) and 80 to 100% in test [3] (setting [9]).

Take `CC(C)(C)C(O)(c1cncnc1)c1ccc(-c2ccc(Cl)cc2)cn1` (centres unmarked) [Compound 65]: in test [1] (setting [4]), the pest or weed control at 50 ppm was in the range of 80 to 100%. The pest or weed control at 100 g/ha in test [2] (setting [6]) is 80 to 100%; in test [2] (setting [7]) it was 80 to 100%; in test [3] (setting [8]), 60 to 79%; in test [3] (setting [9]), 60 to 79%.

On to `OC(c1cccnc1)(c1ccc(-c2ccc(OC(F)F)cc2)cn1)C1CC1` (centres unmarked) [Compound 81], for which the pest or weed control at 50 ppm in test [1] (setting [4]) was 80 to 100%. Further, the pest or weed control at 100 g/ha in test [2] (setting [6]) was 80 to 100%; in test [2] (setting [7]) it was 60 to 79%; in test [3] (setting [8]) it was under 40%; in test [3] (setting [9]), 80 to 100%.

For the compound `CC(C)(C)C(O)(c1cncnc1)c1ccc(-c2ccc(OC3CC3)cc2)cn1` (centres unmarked) [Compound 102], in test [1] (setting [4]), the pest or weed control at 50 ppm is 80 to 100%. Also, the pest or weed control at 100 g/ha in test [2] (setting [6]), in test [2] (setting [7]), in test [3] (setting [8]) and in test [3] (setting [9]) was 80 to 100% each time.

Turning to `OC(c1cncnc1)(c1ccc(Oc2ccc(C(F)(F)F)cc2)cn1)C1CC1` (centres unmarked) [Compound 17], the pest or weed control at 50 ppm in test [1] (setting [4]) and in test [1] (setting [5]) was 80 to 100% throughout. The pest or weed control at 100 g/ha in test [2] (setting [6]) lay within 80 to 100%; in test [2] (setting [7]), 80 to 100%; in test [3] (setting [8]) it was 60 to 79%; in test [3] (setting [9]) it was 60 to 79%.

`Cc1ncncc1C(O)(c1ccc(-c2ccc(OC(F)(F)F)cc2F)cn1)C(C)(C)C` (centres unmarked) [Compound 157]: in test [1] (setting [4]), the pest or weed control at 50 ppm fell in the range of 80 to 100%. Further, the pest or weed control at 100 g/ha in test [2] (setting [6]), in test [2] (setting [7]), in test [3] (setting [8]) and in test [3] (setting [9]) was 80 to 100% throughout.

As for `CC(C)(C)c1ccc(-c2ccc(C(O)(c3cncnc3)C(C)(C)C)nc2)cc1` (centres unmarked) [Compound 97], the pest or weed control at 50 ppm in test [1] (setting [4]) lay within 80 to 100%. Further, the pest or weed control at 100 g/ha in test [2] (setting [6]), in test [2] (setting [7]), in test [3] (setting [8]) and in test [3] (setting [9]) was 80 to 100% each time.

For `CCC(C)(C)C(O)(Cc1cncnc1)c1ccc(-c2ccc(Cl)cc2)cn1` (centres unmarked) [Compound 57], the pest or weed control at 50 ppm in test [1] (setting [4]) and in test [1] (setting [5]) was 80 to 100% each time. Besides, the pest or weed control at 100 g/ha was 80 to 100% in test [2] (setting [6]), 80 to 100% in test [2] (setting [7]), under 40% in test [3] (setting [8]) and under 40% in test [3] (setting [9]).

On to `CC(C)(C#N)c1ccc(-c2ccc(C(O)(c3cncnc3)C(C)(C)C)nc2)cc1` (centres unmarked) [Compound 152], for which, in test [1] (setting [4]), the pest or weed control at 50 ppm lay within 80 to 100%. The pest or weed control at 100 g/ha in test [2] (setting [6]), in test [2] (setting [7]), in test [3] (setting [8]) and in test [3] (setting [9]) was 80 to 100% throughout.

With `CC(C)(C)C(O)(c1cncnc1)c1ccc(-c2ccc(C(F)(F)F)cc2)cn1` (centres unmarked) [Compound 96], in test [1] (setting [4]), the pest or weed control at 50 ppm lay in the range of 80 to 100%. For the same compound, the pest or weed control at 100 g/ha in test [2] (setting [6]), in test [2] (setting [7]), in test [3] (setting [8]) and in test [3] (setting [9]) was 80 to 100% in each case.

As for `CC(C)(C)C(O)(c1cncnc1)c1ccc(-c2cccc(OC(F)(F)F)c2)cn1` (centres unmarked) [Compound 103], the pest or weed control at 50 ppm in test [1] (setting [4]) is 80 to 100%. Also, the pest or weed control at 100 g/ha in test [2] (setting [6]) is 60 to 79%; in test [2] (setting [7]), 80 to 100%; in test [3] (setting [8]), under 40%; in test [3] (setting [9]), 80 to 100%.

For the compound `CC(C)(C)C(O)(c1cncnc1)c1ccc(-c2ccccc2OC(F)(F)F)cn1` (centres unmarked) [Compound 104], the pest or weed control at 50 ppm in test [1] (setting [4]) lay in the range of 80 to 100%. For the same compound, the pest or weed control at 100 g/ha in test [2] (setting [6]) is 80 to 100%; in test [2] (setting [7]), 80 to 100%; in test [3] (setting [8]), under 40%; in test [3] (setting [9]) it was 80 to 100%.

`CC(C)(C)C(O)(c1cncnc1)c1ccc(-c2ccc(OCC(F)(F)F)cc2)cn1` (centres unmarked) [Compound 120]: the pest or weed control at 50 ppm in test [1] (setting [4]) lay in the range of 80 to 100%. Further, the pest or weed control at 100 g/ha in test [2] (setting [6]) was in the range of 80 to 100%; in test [2] (setting [7]), 80 to 100%; in test [3] (setting [8]), 80 to 100%; in test [3] (setting [9]), 60 to 79%.

Turning to `CC(=O)c1ccc(-c2ccc(C(O)(c3cncnc3)C(C)(C)C)nc2)cc1` (centres unmarked) [Compound 101], the pest or weed control at 50 ppm in test [1] (setting [4]) was 80 to 100%. Moreover, the pest or weed control at 100 g/ha in test [2] (setting [6]), in test [2] (setting [7]), in test [3] (setting [8]) and in test [3] (setting [9]) was 80 to 100% throughout.

Consider `COc1ncncc1C(O)(c1ccc(-c2ccc(C3(C#N)CC3)cc2)cn1)C(C)(C)C` (centres unmarked) [Compound 169], for which the pest or weed control at 50 ppm in test [1] (setting [4]) was 80 to 100%. For the same compound, the pest or weed control at 100 g/ha lay within 80 to 100% in test [2] (setting [6]), 60 to 79% in test [2] (setting [7]), 80 to 100% in test [3] (setting [8]) and 80 to 100% in test [3] (setting [9]).

Turning to `OC(c1cccnc1)(c1ccc(-c2ccc(OC(F)(F)F)cc2)cn1)c1ccc(F)cc1F` (centres unmarked) [Compound 91], in test [1] (setting [4]), the pest or weed control at 50 ppm fell in the range of 80 to 100%. Further, the pest or weed control at 100 g/ha in test [2] (setting [6]) lay in the range of 60 to 79%; in test [2] (setting [7]), 80 to 100%; in test [3] (setting [8]) it was 40 to 59%; in test [3] (setting [9]) it was 80 to 100%.

With `CC(C)(C)C(O)(c1cncnc1)c1ccc(-c2ccc(SC(F)(F)F)cc2)cn1` (centres unmarked) [Compound 125], in test [1] (setting [4]), the pest or weed control at 50 ppm lay in the range of 80 to 100%. Also, the pest or weed control at 100 g/ha in test [2] (setting [6]) was in the range of 80 to 100%; in test [2] (setting [7]) it was 80 to 100%; in test [3] (setting [8]) it was 80 to 100%; in test [3] (setting [9]) it was 60 to 79%.

Turning to `COc1ccc(-c2ccc(C(O)(c3cncnc3)C(C)(C)C)nc2)cc1` (centres unmarked) [Compound 95], the pest or weed control at 50 ppm in test [1] (setting [4]) fell in the range of 80 to 100%. For the same compound, the pest or weed control at 100 g/ha in test [2] (setting [6]), in test [2] (setting [7]), in test [3] (setting [8]) and in test [3] (setting [9]) was 80 to 100% in each case.

As for `CC(C)(C)C(O)(c1cncnc1)c1ccc(-c2ccc(F)cc2)cn1` (centres unmarked) [Compound 115], the pest or weed control at 50 ppm in test [1] (setting [4]) lay within 80 to 100%. For the same compound, the pest or weed control at 100 g/ha in test [2] (setting [6]), in test [2] (setting [7]), in test [3] (setting [8]) and in test [3] (setting [9]) was 80 to 100% each time.

For the compound `CC(C)(C)C(O)(c1cncnc1)c1ccc(-c2ccc(OC(F)(F)F)c(F)c2)cn1` (centres unmarked) [Compound 106], in test [1] (setting [4]), the pest or weed control at 50 ppm lay within 80 to 100%. Besides, the pest or weed control at 100 g/ha in test [2] (setting [6]), in test [2] (setting [7]), in test [3] (setting [8]) and in test [3] (setting [9]) was 80 to 100% throughout.

`CC(C)(C)c1ccc(-c2ccc(C(O)(c3cccnc3)C(C)(C)C)nc2)cc1` (centres unmarked) [Compound 143]: in test [1] (setting [4]), the pest or weed control at 50 ppm lay in the range of 80 to 100%. Moreover, the pest or weed control at 100 g/ha in test [2] (setting [6]) was in the range of 80 to 100%; in test [2] (setting [7]) it was 60 to 79%; in test [3] (setting [8]), 80 to 100%; in test [3] (setting [9]), 80 to 100%.
